Experimental data reported in PubChem BioAssay (NCI).
Values joined by “and” are separate entries in the source; they are usually repeats but may differ in a detail not shown here. Identical values can stand only once.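 Following 48 hours of exposure in 96-well plates, responses at five concentrations were used to interpolate endpoints linearly. At the GI50, growth is halved. TGI: concentration producing complete growth inhibition.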

Key:
Assay in all cases: DTP human tumour cell line panel, 48 h
[1] = tested on: A498 renal
[2] = tested on: UACC-62 melanoma
[3] = tested on: SK-MEL-5 melanoma
[4] = tested on: IGROV1 ovarian
[5] = tested on: RXF 393 renal
[6] = tested on: DU-145 prostate
[7] = tested on: A549 NSCLC
[8] = tested on: SK-OV-3 ovarian
[9] = tested on: MALME-3M melanoma
[10] = tested on: NCI-H23 lung

| Compound | GI50 [1] | TGI [1] | GI50 [2] | TGI [2] | GI50 [3] | TGI [3] | GI50 [4] | TGI [4] | GI50 [5] | TGI [5] | GI50 [6] | TGI [6] | GI50 [7] | TGI [7] | GI50 [8] | TGI [8] | GI50 [9] | TGI [9] | GI50 [10] | TGI [10] |
| --- | --- | --- | --- | --- | --- | --- | --- | --- | --- | --- | --- | --- | --- | --- | --- | --- | --- | --- | --- | --- |
| CC(C)c1cnn2c(NCc3ccccc3)cc(NC[C@H]3CCNC[C@@H]3O)nc12 | 1.63 µM and 2.59 µM | 4.2 µM and 8.15 µM | 0.236 µM and 0.29 µM | 1.96 µM and 1.92 µM | 0.742 µM and 1.19 µM | 2.35 µM and 3.59 µM | 0.252 µM and 0.279 µM | 11 µM and 10.3 µM | 0.352 µM and 1.03 µM | 1.09 µM and 2.83 µM | 0.4 µM and 0.309 µM | 11.4 µM and 9.62 µM | 0.342 µM and 0.272 µM | 11.9 µM and 7.97 µM | 4.71 µM and 3.41 µM | 15.1 µM and 16.5 µM | 0.805 µM and 0.3 µM | 2.6 µM and 2.72 µM | 0.463 µM | 2.98 µM |
| NCCSSCCN |  | > 100 µM |  | > 100 µM |  | > 100 µM |  | > 100 µM |  | > 100 µM |  | > 100 µM |  | > 100 µM |  | > 100 µM |  | > 100 µM |  | > 100 µM |
| O=C(/C=C/C12c3ccccc3C(c3ccccc31)C1C(=O)NC(=O)C12)c1ccc(Cl)cc1Cl (stereo not given) | 1.82 µM | 3.3 µM | 1.67 µM | 3.18 µM | 1.71 µM | 3.34 µM | 1.97 µM | 4.27 µM | 1.73 µM | 3.22 µM | 1.83 µM | 3.43 µM | 2.23 µM | 6.03 µM | 2.4 µM | 6.71 µM | 1.71 µM | 3.12 µM | 2.02 µM | 4.1 µM |
| COC(=O)c1cc2c3ccccc3n3c(=O)c4cc5ccc(N(S(=O)(=O)c6ccc(C)cc6)S(=O)(=O)c6ccc(C)cc6)cc5nc4c(n1)c23 | 34.8 µM | 70.2 µM | 29.7 µM | > 100 µM | > 100 µM | > 100 µM | 43.7 µM | > 100 µM | 13.1 µM | 37.8 µM | > 100 µM | > 100 µM | > 100 µM | > 100 µM | 26.2 µM | > 100 µM | 69.7 µM | > 100 µM | 36.6 µM | > 100 µM |
| O=C1c2ccccc2-[n+]2ccc3c([nH]c4ccccc43)c21 |  | 3.15 µM |  | 0.699 µM |  | 0.4 µM |  | 0.671 µM |  | 1.26 µM |  | 2.54 µM |  | 2.7 µM |  | 6.27 µM |  | 0.181 µM |  | 2.76 µM |
| Nc1nonc1-c1nc2cnccc2n1C1CC1 | 1.97 µM | 8.77 µM | 7.59 µM | > 25 µM | 5.81 µM | > 19 µM | 8.76 µM | > 25 µM | 1.2 µM | 6.92 µM | 10.6 µM | > 25 µM | 6.39 µM | > 25 µM | 4.36 µM | 18.4 µM | > 15.9 µM | > 25 µM | 7.3 µM | > 25 µM |
| Cc1nc(-c2ccccc2)n2nc(NCCCN3CCOCC3)ncc12 | 6.5 µM | > 25 µM | > 25 µM | > 25 µM | > 16.7 µM | > 25 µM | 13.8 µM | > 25 µM | 6.75 µM | > 25 µM | 22.7 µM | > 25 µM | > 25 µM | > 25 µM | 6.1 µM | 17.9 µM | > 17.9 µM | > 25 µM | > 25 µM | > 25 µM |
| FC(F)(c1ccc2ncccc2c1)c1nnc2ccc(-c3ccncc3)nn12 | 19.3 µM | > 100 µM | > 100 µM | > 100 µM | 48.5 µM | > 100 µM | 49.4 µM | > 100 µM | 16.4 µM | 83.8 µM | > 100 µM | > 100 µM | 76.8 µM | > 100 µM | > 100 µM | > 100 µM | > 100 µM | > 100 µM | > 100 µM | > 100 µM |
| CS(=O)(=O)CCNCc1cc(-c2cc3c(Nc4ccc(OCc5cccc(F)c5)c(Cl)c4)ncnc3s2)cs1 | 2.27 µM | > 25 µM | 7.12 µM | 24.5 µM | 7.09 µM | > 25 µM | 5.61 µM | > 25 µM | 2.27 µM | 11.8 µM | 13.3 µM | > 25 µM | 10.8 µM | > 25 µM | 1.04 µM | > 19.6 µM | 19.1 µM | > 25 µM | 20.5 µM | > 25 µM |
